Results published in patent US20240238380A1, “COMPOSITION FOR COMBINATION THERAPY COMPRISING GROWTH DIFFERENTIATION FACTOR-15 VARIANT AND GLUCAGON-LIKE PEPTIDE-1 RECEPTOR AGONIST” (YUHAN CORPORATION, priority 2021, published 2024).
Marks after values point to notes of the source that are not given here.

Experiments:
Format in all cases: in vivo
[1] = Anti-obesity effect alone and in combination with semaglutide or tirzepatide in DIO mice (Example 7); conditions: 10 nmol/kg s.c. Q3D
Description: Diet-induced obese (DIO) mice, obtained by feeding mice with high-fat diet, are characterized by obesity, hyperglycemia, and insulin resistance. Diet-induced obese mice (Taconic, USA) resulting from feeding C57BL/6N mice with high-fat food (60 kcal % fat, Research Diets, Cat #D12492, USA) for 8 weeks were purchased from Raon Bio (Animal Inc., Republic of Korea). The diet-induced obese mice were additionally fed with 60% high-fat food for 5 weeks after arrival, and then used in the present test. On the day before drug treatment, the mice were grouped based on the average body weight of individual mice (n=6 per group), after which 0.1 and 1 nmol/kg of FM9-6+Fc_hole alone, 10 nmol/kg of semaglutide (long-acting GLP-1 derivative, SEQ ID NO: 114) and 10 nmol/kg of tirzepatide (long-acting GLP-1/GIP derivative, SEQ ID NO: 117) alone as control drugs, FM9-6+Fc_hole and semaglutide at doses of 0.1+10 and 1+10 nmol/kg in combination, and FM9-6+Fc_hole and tirzepatide at doses of 1+10 nmol/kg in combination were subcutaneously administered thereto every 3 days (Q3D) for a total of 4 weeks. The semaglutide that was used in the test was Ozempic® (semaglutide) from Novo NorDisk, and the tirzepatide that was used was a material synthesized by MedChemExpress (HY-P1731B, USA). Here, DPBS (Dulbecco's phosphate-buffered saline, Gibco, USA) was administered for vehicle treatment, and, during the experimental period (26 days), body weight was measured every day and food intake was measured every 3 days.

[2] = Anti-obesity effect by repeated administration alone and in combination with semaglutide in ob/ob mice (Example 5)
Description: The ob/ob mouse has a mutation in the leptin gene resulting in leptin deficiency, and are characterized by hyperglycemia, insulin resistance, overeating, and obesity. 5-week-old male ob/ob mice (Jackson Laboratory, USA) were purchased from Raon Bio (Animal Inc., Republic of Korea). The ob/ob mice were acclimatized with normal food (Teklad Certified Irradiated Global 18% Protein Rodent Diet, 2918C, Harlan Co., USA) for 4 weeks, and drug treatment was started at 9 weeks of age. On the day before drug treatment, the mice were grouped based on the body weight of individual mice and random blood glucose levels determined by sampling at the tail vein (n=6 per group). Thereafter, 1 and 10 nmol/kg of FM9-6+Fc_hole alone, 10 and 30 nmol/kg of semaglutide alone, and FM9-6+Fc_hole and semaglutide at doses of 1+10 and 10+10 nmol/kg in combination were subcutaneously administered thereto a total of 10 times every 3 days (Q3D), and body weight and food intake were measured every day or every 3 days during the experimental period (29 days). Here, DPBS (Dulbecco's phosphate-buffered saline, Gibco, USA) was administered for vehicle treatment.

[3] = Anti-obesity and metabolic parameter effects alone and in combination with large dose of semaglutide in ob/ob mice (Example 6); conditions: 30 nmol/kg s.c. Q3D
Description: 5-week-old male ob/ob mice (Jackson Laboratory, USA) were purchased from Raon Bio (Animal Inc., Republic of Korea). The ob/ob mice were acclimatized with normal chow or normal chow diet (Teklad Certified Irradiated Global 18% Protein Rodent Diet, 2918C, Harlan Co., USA) for 5 weeks, and drug treatment was started at 10 weeks of age. On the day before drug treatment, the mice were grouped based on the body weight of individual mice and random blood glucose levels determined by sampling at the tail vein (n=6 per group). Thereafter, 1 nmol/kg of FM9-6+Fc_hole alone, 30 nmol/kg of semaglutide alone, and FM9-6+Fc_hole and semaglutide in combination (1+30 nmol/kg) were subcutaneously administered thereto a total of 9 times every 3 days (Q3D), and body weight, food intake, and non-fasting blood glucose were measured every day or every 3 days during the experimental period (24 days). Here, DPBS (Dulbecco's phosphate-buffered saline, Gibco, USA) was administered for vehicle treatment.

[4] = Inhibitory effect on gastric emptying (acetaminophen exposure) in normal rats (Example 8); conditions: rats; for gastric emptying (in words): vs. negative control
Experimental: Therefore, this example was performed to investigate the inhibitory effect on gastric emptying when the novel long-acting GDF15 fusion protein was administered at the doses equal to the effective dose, higher than the maximum effective dose, or in combination with a GLP-1 receptor agonist to rats. 6-week-old male SD rats (Orient Bio, Republic of Korea) were purchased from Hallym Lab. Animal Inc., Republic of Korea. Animals were acclimated for 7 days. On the day of drug administration, the rats were grouped based on the average body weight of individual rats (n=5 per group) and fasted for at least 6 hours before oral administration of acetaminophen. Then, 0.1, 1, and 10 nmol/kg of FM9-6+Fc_hole, 10 nmol/kg of semaglutide (long-acting GLP-1 derivative, SEQ ID NO: 114), and combination of FM9-6+Fc_hole and semaglutide (1+10 nmol/kg) were subcutaneously administered. The semaglutide was Ozempic® (semaglutide) from Novo NorDisk. As a negative control drug, D-PBS (normal vehicle) was subcutaneously administered, and as a positive control drug, 30 mg/kg of loperamide was orally administered 45 minutes before acetaminophen administration. On 3, 24 and 72 hours after a single dose of the test articles, acetaminophen was orally administered at 100 mg/kg to rats, and blood samples were collected before and at 30, 60, 90, 120 and 150 minutes after acetaminophen administration. The plasma concentration of acetaminophen was analyzed, and the pharmacokinetic profiles and the systemic exposures of acetaminophen were compared to evaluate the inhibitory effect on gastric emptying among the groups.

[5] = Anti-obesity effect alone and in combination with semaglutide in diet-induced obese (DIO) mice (Example 4); conditions: for Change in body weight (%) vs. day 0, Maximum efficacy: 8 weeks
Description: Diet-induced obese (DIO) mice, obtained by feeding mice with high-fat food, are characterized by obesity, hyperglycemia, and insulin resistance. Diet-induced obese mice (Taconic, USA) resulting from feeding C57BL/6N mice with high-fat food (60 kcal % fat, Research Diets, Cat #D12492, USA) for 8 weeks were purchased from Raon Bio (Animal Inc., Republic of Korea). The diet-induced obese mice were additionally fed with 60% high-fat food for 5 weeks after arrival, and then used in the present test. On the day before drug treatment, the mice were grouped based on the average body weight of individual mice (n=6 per group), after which 10 and 30 nmol/kg of FM9-6+Fc_hole alone, 10 and 30 nmol/kg of semaglutide (long-acting GLP-1 derivative, SEQ ID NO: 114) alone as a control drug, and FM9-6+Fc_hole and semaglutide were administered subcutaneously every 2 days (Q2D) for a total of 8 weeks in a combination of 10+10 and 30+30 nmol/kg. The semaglutide that was used in the test was Ozempic® (semaglutide) from Novo NorDisk. Here, for vehicle treatment, DPBS (Dulbecco's phosphate-buffered saline, Gibco, USA) was subcutaneously administered every 2 days (Q2D). Body weight was measured every 2 days from the first day of drug treatment to day 54, and the results thereof are shown in Table 4 below.

semaglutide [reference compound]
Change in body weight (%) vs. day 0, Maximum efficacy ([1]; 4 weeks): −18.95 (On Day 19)**** %
Change in body weight (%) vs. day 0, Efficacy on Day 26 ([1]; Day 26): −17.69**** %
Change in body weight (%) vs. ob/ob control, Maximum efficacy ([2]; 10 nmol/kg s.c. Q3D): −10.04 (On Day 25)*** %
Change in body weight (%) vs. ob/ob control, Efficacy on Day 29 ([2]; 10 nmol/kg s.c. Q3D): −6.88* %
Change in body weight (%) vs. ob/ob control, Maximum efficacy ([2]; 30 nmol/kg s.c. Q3D): −11.38 (On Day 25)**** %
Change in body weight (%) vs. ob/ob control, Efficacy on Day 29 ([2]; 30 nmol/kg s.c. Q3D): −9.92**** %
Change in body weight (%) vs. ob/ob control, Efficacy on Day 24 [3]: −10.08**** %
Mean of random blood glucose levels (mg/dL), Efficacy on Day 24 [3]: 155.7**** mg/dL
AUClast of acetaminophen (μg · min/mL), 3 hr ([4]; 10 nmol/kg s.c. single dose, acetaminophen 3 hr after dose): 266.43*** μg · min/mL
AUClast of acetaminophen (μg · min/mL), 24 hr ([4]; 10 nmol/kg s.c. single dose, acetaminophen 24 hr after dose): 2577.72 µg·min/mL
AUClast of acetaminophen (μg · min/mL), 72 hr ([4]; 10 nmol/kg s.c. single dose, acetaminophen 72 hr after dose): 3354.48 µg·min/mL
gastric emptying (in words) ([4]; 24 and 72 hours after administration): gastric emptying was restored
gastric emptying (in words) ([4]; 3 hours after administration): inhibition of gastric emptying
Change in body weight (%) vs. day 0, Maximum efficacy ([5]; 10 nmol/kg s.c. Q2D): −26.71 (On Day 30)**** %
Change in body weight (%) vs. day 0, Efficacy on Day 54 ([5]; 10 nmol/kg s.c. Q2D): −17.34**** %
Change in body weight (%) vs. day 0, Maximum efficacy ([5]; 30 nmol/kg s.c. Q2D): −28.13 (On Day 21)**** %
Change in body weight (%) vs. day 0, Efficacy on Day 54 ([5]; 30 nmol/kg s.c. Q2D): −13.40**** %
